These results are taken from US11731946B2, “Broad spectrum antivirulence, anti-persistence compounds” (priority 2017, dated 2023).

Assay [1] relates to MvfR regulon. Description: Quantification of pyocyanin (OD520nm of chloroform-extracted cultures). As to conditions: for activity at 50 µM: read-out: pyocyanin @50 uM (%), compound at 50 uM; for activity at 1 µM: read-out: pyocyanin @1 uM (%), compound at 1 uM; for activity at 10 µM: read-out: pyocyanin @10 uM (%), compound at 10 uM; for pyocyanin @50 uM (%): compound at 50 uM. The class given is cell-based, P. aeruginosa.

The test system of assay [2] is MvfR regulon. Description: pqsA gene expression (pqsA-GFP reporter). In kind it is cell-based, P. aeruginosa. As to conditions: for activity at 50 µM: read-out: pqsA @50 uM (%), compound at 50 uM; for activity at 10 µM: read-out: pqsA @10 uM (%), compound at 10 uM. As for the experimental part:
Experiments were performed to identify compounds that inhibit the MvfR regulon without altering growth, ultimately attenuating P. aeruginosa infection. MvfR is a LysR-type transcriptional regulator that directs HAQs synthesis, including that of its ligands, 4-hydroxy-2-heptylquinoline (HHQ) and 3,4-dihydroxy-2-heptylquinoline (PQS).
MvfR promotes the production of HAQs by binding to and activating the pqs operon, which encodes enzymes for HAQ synthesis. Anthranilic acid (AA), derived from the phnAB, kynABU, and trpEG pathways, is the precursor for HAQs. pqsA encodes an anthranilate-coenzyme A ligase, which activates anthranilic acid and catalyzes the first committed step to HAQ production. The exact roles of PqsB and PqsC are unknown, though both show homology to acyl-carrier-proteins and both are required for HHQ and PQS production. […] The final gene of the operon, pqsE encodes for a putative hydrolase, and while the protein is not required for the synthesis of HAQs, it is necessary for pyocyanin production.
Nanomolar levels of most of these MvfR antagonists impeded the activity of MvfR and in consequence the MvfR virulence regulated ACRP functions, including: (1) the production of the important pro-acute P. aeruginosa virulence factor pyocyanin (see e.g., FIG. 9A) the efficacy of two of these potent inhibitors, D57 and D88, was also confirmed by testing many different MDR P. aeruginosa clinical isolates (see e.g., FIG. 11A-11B), providing further confidence of their inhibitory potency; (2) the expression of the genes that encode the enzymes catalyzing the synthesis of both pro-acute and pro-persistence MvfR-regulated virulence molecules, 4-hydroxyl-2-alkyl-quinolines (HAQs) and 2-aminoacetophenon (2-AA), as assessed by pqsAGFP reporter gene expression (see e.g., FIG. 9B) and HAQ production showing the levels of MvfR inducers/ligands HHQ and PQS as well as of the molecules critical for biofilm and Antibiotic tolerant/persiters cells formation HQNO and 2-AA (see e.g., FIG. 9C); (3) AT/P cell formation (see e.g., FIGS. 11A, 12A); (4) biofilm formation (see e.g., FIG. 12B); and (5) biofilm dispersal of preformed biofilm by potentiating antibiotic action (see e.g., FIG. 11B).

The mark [3] stands for this setting: Pseudomonas aeruginosa, read-out: IC50 pyocyanin (μM).

Take `CC(C)c1ccc(NCC(=O)Nc2ccc(C#N)cc2)cc1` [Compound 45]: the activity at 50 µM in assay [1] (Pseudomonas aeruginosa) amounted to 59.1%; in assay [2] (Pseudomonas aeruginosa), 52.8%.
On to `N#Cc1ccc(NC(=O)C2CCN(c3ccc(F)cc3)C2=O)cc1` (stereo not shown) [Compound 94], for which, in assay [1] (Pseudomonas aeruginosa), the activity at 1 µM is 94.6%, the activity at 10 µM amounted to 94% and the activity at 50 µM came out at 95.2%. Also, the activity at 10 µM in assay [2] (Pseudomonas aeruginosa) was 109%.
For `N#Cc1ccc(NC(=O)CC(=O)Cc2ccc(F)cc2)cc1` [Compound 99] the same measures were 92%, 115%, 102% and 96.3%.
With `N#Cc1ccc(NC(=O)C(F)C(=O)Nc2ccc(C#N)cc2)cc1` [Compound 111], in assay [1] (Pseudomonas aeruginosa), the activity at 1 µM came to 91.7%, the activity at 10 µM was determined as 50.8% and the activity at 50 µM was found to be 34%. For the same compound, in assay [2] (Pseudomonas aeruginosa), the activity at 10 µM was found to be 62.8% and the activity at 50 µM is 41.8%.
The IC50 is the concentration that inhibits the measured activity by half. As to `N#Cc1ccc(NC(=O)CC(=O)Nc2ccc(C(F)(F)F)cc2)cc1` [Compound 84], in assay [1] (setting [3]), the IC50 came to 0.45 µM. In assay [1] (Pseudomonas aeruginosa), the activity at 1 µM is 46.8%, the activity at 10 µM is 6.98% and the activity at 50 µM turned out to be 6.1%. Moreover, the activity at 10 µM in assay [2] (Pseudomonas aeruginosa) stood at 6.98%.
`N#Cc1ccc(NC(=O)CC(=O)Nc2ccc(F)cn2)cc1` [Compound 88]: in assay [1] (Pseudomonas aeruginosa), the activity at 1 µM stood at 97%, the activity at 10 µM turned out to be 77.7% and the activity at 50 µM turned out to be 48.3%. The activity at 10 µM in assay [2] (Pseudomonas aeruginosa) came to 95.1%.
Take `N#Cc1ccc(NC(=O)C(F)(F)C(=O)Nc2ccc(C#N)cc2)cc1` [Compound 112]: in assay [1] (Pseudomonas aeruginosa), the activity at 1 µM turned out to be 101%, the activity at 10 µM amounted to 87.1% and the activity at 50 µM was determined as 93.6%. Further, in assay [2] (Pseudomonas aeruginosa), the activity at 10 µM was 95.4% and the activity at 50 µM came to 95.1%.
On to `Cc1cc(F)ccc1NC(C)C(=O)Nc1ccc(C#N)cc1` (stereo not shown) [Compound 13], for which, in assay [1] (listed as D1), the “pyocyanin @50 uM (%)” value was 101.56%. For the same compound, the “pqsA @50 uM (%)” value in assay [2] (compound at 50 uM, listed as D1) was determined as 88.58%.
For `N#Cc1ccc(NC(=O)CC(=O)Nc2ccc(C#N)cn2)cc1` [Compound 93], in assay [1] (Pseudomonas aeruginosa), the activity at 1 µM turned out to be 79.6%, the activity at 10 µM was 53.5% and the activity at 50 µM worked out at 14.3%. Also, the activity at 10 µM in assay [2] (Pseudomonas aeruginosa) came to 61.3%.
Regarding `Cc1cc(F)ccc1NCC(=O)Nc1ccc(N2CCOCC2)cc1` [Compound 17], the activity at 50 µM in assay [1] (Pseudomonas aeruginosa) worked out at 102%; in assay [2] (Pseudomonas aeruginosa), 99.8%.
For the compound `Cc1ccc(NCC(=O)N(C)c2ccccc2)c(C)c1` [Compound 32], the activity at 50 µM in assay [1] (Pseudomonas aeruginosa) came out at 111%; in assay [2] (Pseudomonas aeruginosa) it was 88%.
For `Cc1cc(F)ccc1NCC(=O)Nc1c(F)cccc1F` [Compound 22], the results for the activity at 50 µM in assay [1] (Pseudomonas aeruginosa) and in assay [2] (Pseudomonas aeruginosa) were 89.9% and 89.2%, respectively.
Regarding `O=C(CC(=O)Nc1ccc(Oc2ccccc2)cc1)Nc1ccc(Cl)cc1` [Compound 82], the IC50 in assay [1] (setting [3]) is 0.09 µM. Also, in assay [1] (Pseudomonas aeruginosa), the activity at 1 µM came to 40.3%, the activity at 10 µM stood at 39.9% and the activity at 50 µM was 26%. In addition, in assay [2] (Pseudomonas aeruginosa), the activity at 10 µM came out at 28.8%.
`Cc1ccc(NC(=O)CNc2ccc(F)cc2C)c(Br)c1` [Compound 24]: the activity at 50 µM in assay [1] (Pseudomonas aeruginosa) turned out to be 108%; in assay [2] (Pseudomonas aeruginosa) it was 92.3%.
For the compound `N#Cc1ccc(NC(=O)CC(=O)Nc2cccc(Br)c2)cc1` [Compound 56], in assay [1] (Pseudomonas aeruginosa), the activity at 1 µM worked out at 79.9%, the activity at 10 µM was determined as 41.4% and the activity at 50 µM was 17.2%. In addition, the activity at 10 µM in assay [2] (Pseudomonas aeruginosa) amounted to 64.2%.
Turning to `N#Cc1ccc(NC(=O)CC(=O)Nc2ccc([N+](=O)[O-])cc2)cc1` [Compound 66], in assay [1] (compound at 1 uM, listed as D51P), the “pyocyanin @1 uM (%)” value came to 61.28%. Also, in assay [1] (compound at 10 uM, listed as D51P), the “pyocyanin @10 uM (%)” value is recorded as 24.86%. Further, the “pyocyanin @50 uM (%)” value in assay [1] (listed as D51P) is 4.00%. For the same compound, the IC50 in assay [1] (read-out: IC50 pyocyanin) amounted to 0.84 µM. For the same compound, the activity at 10 µM in assay [2] (Pseudomonas aeruginosa) turned out to be 1.51%.
Take `Cc1ccc(F)cc1NCC(=O)Nc1ccc(C#N)cc1` [Compound 30]: the values for the activity at 50 µM in assay [1] (Pseudomonas aeruginosa) and in assay [2] (Pseudomonas aeruginosa) were 68.5% and 28.1%, respectively.
For `CC(=O)c1ccccc1NC(=O)CNc1ccc(F)cc1C` [Compound 42], the values for the activity at 50 µM in assay [1] (Pseudomonas aeruginosa) and in assay [2] (Pseudomonas aeruginosa) were 91.4% and 94.2%, respectively.
Regarding `COc1ccc(NC(=O)CNc2ccc(F)cc2C)cc1` [Compound 27], the activity at 50 µM is 102% in assay [1] (Pseudomonas aeruginosa) and 86.9% in assay [2] (Pseudomonas aeruginosa).
As to `N#Cc1ccc(NC(=O)CNc2cccc(F)c2)cc1` [Compound 18], the values for the activity at 50 µM in assay [1] (Pseudomonas aeruginosa) and in assay [2] (Pseudomonas aeruginosa) were 91.3% and 68%, respectively.
`Cc1ccc(NCC(=O)Nc2ccc(C#N)cc2)cc1F` [Compound 40]: the activity at 50 µM in assay [1] (Pseudomonas aeruginosa) worked out at 59.5%; in assay [2] (Pseudomonas aeruginosa) it was 42%.
Consider `N#Cc1ccc(NC(=O)CC(O)Cc2ccc(F)cc2)cc1` (stereo not shown) [Compound 104], for which the activity at 50 µM in assay [1] (Pseudomonas aeruginosa) is 95.3%. In addition, in assay [2] (Pseudomonas aeruginosa), the activity at 10 µM was determined as 97.3%.
Turning to `Cc1cc(F)ccc1NCC(=O)NCC(F)(F)F` [Compound 29], the activity at 50 µM in assay [1] (Pseudomonas aeruginosa) came out at 110%; in assay [2] (Pseudomonas aeruginosa) it was 70%.
`N#Cc1ccc(NC(=O)/C=C/C(=O)Nc2ccc(F)cc2)cc1` [Compound 101]: the activity at 50 µM in assay [1] (Pseudomonas aeruginosa) stood at 87.8%. Moreover, the activity at 10 µM in assay [2] (Pseudomonas aeruginosa) is 96.3%.
With `N#Cc1ccc(NC(=O)CNc2ccc(F)cc2F)cc1` [Compound 16], the activity at 50 µM in assay [1] (Pseudomonas aeruginosa) worked out at 89.1%; in assay [2] (Pseudomonas aeruginosa), 56.3%.
Turning to `N#Cc1ccc(NC(=O)CNc2ccc(Cl)cc2)cc1` [Compound 28], the IC50 in assay [1] (setting [3]) was found to be 20.4 µM; in assay [2] (Pseudomonas aeruginosa, read-out: IC50 pqsA (μM)) it was 24.6 µM. The activity at 50 µM was 43.2% in assay [1] (Pseudomonas aeruginosa) and 17.7% in assay [2] (Pseudomonas aeruginosa).
In the case of `Cc1cc(F)ccc1NCC(=O)Nc1cccc(Cl)c1` [Compound 34], the activity at 50 µM in assay [1] (Pseudomonas aeruginosa) stood at 96.1%; in assay [2] (Pseudomonas aeruginosa), 70.9%.
`CN(C(=O)CC(=O)Nc1ccc(C#N)cc1)c1ccc(C#N)cc1` [Compound 89]: in assay [1] (Pseudomonas aeruginosa), the activity at 1 µM was 95.7%, the activity at 10 µM was 102% and the activity at 50 µM was 84.8%. The activity at 10 µM in assay [2] (Pseudomonas aeruginosa) came out at 98.5%.
Consider `N#Cc1ccc(NC(=O)CC(=O)c2ccc(F)cc2)cc1` [Compound 91], for which, in assay [1] (Pseudomonas aeruginosa), the activity at 1 µM came to 99.2%, the activity at 10 µM was determined as 98.3% and the activity at 50 µM amounted to 77.1%. Also, the activity at 10 µM in assay [2] (Pseudomonas aeruginosa) amounted to 87.4%.
As to `N#Cc1ccc(NC(=O)CC(=O)Nc2ccccc2Br)cc1` [Compound 55], in assay [1] (Pseudomonas aeruginosa), the activity at 1 µM stood at 99%, the activity at 10 µM worked out at 70.7% and the activity at 50 µM is 86.3%. For the same compound, the activity at 10 µM in assay [2] (Pseudomonas aeruginosa) came out at 94%.
With `N#Cc1ccc(NC(=O)CC(=O)Nc2ccncc2)cc1` [Compound 100], in assay [1] (Pseudomonas aeruginosa), the activity at 1 µM was determined as 66.3%, the activity at 10 µM came out at 101% and the activity at 50 µM amounted to 81.9%. Moreover, in assay [2] (Pseudomonas aeruginosa), the activity at 10 µM is 88.9%.
On to `COc1cccc(NC(=O)CNc2ccc(F)cc2C)c1` [Compound 44], for which the activity at 50 µM in assay [1] (Pseudomonas aeruginosa) is 92.2%; in assay [2] (Pseudomonas aeruginosa), 93.7%.
For the compound `N#Cc1ccc(NC(=O)CC(=O)Nc2cccc(C#N)c2)cc1` [Compound 90], in assay [1] (Pseudomonas aeruginosa), the activity at 1 µM was found to be 91.8%, the activity at 10 µM was 88.5% and the activity at 50 µM was 49.4%. Further, in assay [2] (Pseudomonas aeruginosa), the activity at 10 µM was 97.2%.
